Series [1] concerns spontaneously hypertensive rats. The series is described as follows: Measurement of blood pressure and heart rate on awake rats (telemetry). The following applies: maximum reduction in heart rate, oral administration of 3 mg/kg, awake SH rats. It counts as in vivo. The protocol:
B-5. Measurement of Blood Pressure and Heart Rate
Awake spontaneously hypertensive rats (SH-Ratten) carrying an internal transmitter capable of measuring permanently both blood pressure and heart rate (telemetric monitoring of hemodynamic parameters) and sitting in a cage fitted with motion sensors are orally administered test substances in various dosages. Blood pressure and heart rate and changes thereof, and also the movements and the activity of the animals are then recorded and evaluated for 24 hours.

The nature of series [2]: Determination of the solubility in 5% strength aqueous dextrose solution. It counts as physicochemical. The following applies: saline or isotonic, thermodynamic from solid, room temperature, 24 h. The protocol: B-8. Determination of Solubility, Stability and Liberation Behavior a) Determination of the Solubility:
The test substance is suspended in 5% strength aqueous dextrose solution. This suspension is shaken at room temperature for 24 h. After ultracentrifugation at 224 000 g for 30 min, the supernatant is diluted with DMSO and analyzed by HPLC. A two-point calibration plot of the test compound in DMSO is used for quantification.
Agilent 1100 with DAD (G1315A), quat. pump (G1311A), autosampler CTC HTS PAL, degasser (G1322A) and column thermostat (G1316A); column: Phenomenex Gemini C18, 5 μm, 50 mm×2 mm; temperature: 40° C.; eluent A: water/phosphoric acid pH 2; eluent B: acetonitrile; flow rate: 0.7 ml/min; gradient: 0-0.5 min 85% A, 15% B; ramp: 0.5-3 min 10% A, 90% B; 3-3.5 min 10% A, 90% B; ramp: 3.5-4 min 85% A, 15% B; 4-5 min 85% A, 15% B.
Agilent 1100 with DAD (G1315A), quat. pump (G1311A), autosampler CTC HTS PAL, degasser (G1322A) and column thermostat (G1316A); column: VDSoptilab Kromasil 100 C18, 3.5 μm, 60 mm×2.1 mm; temperature: 30° C.; eluent A: water+5 ml perchloric acid/I; eluent B: acetonitrile; flow rate: 0.75 ml/min; gradient: 0-0.5 min 98% A, 2% B; ramp: 0.5-4.5 min 10% A, 90% B; 4.5-6 min 10% A, 90% B; ramp: 6.5-6.7 min 98% A, 2% B; 6.7-7.5 min 98% A, 2% B.

A short description of series [3]: Stability in buffer at various pH values. It counts as physicochemical. Here is the method:
b) Stability in Buffer at Various pH Values:
0.3 mg of the test substance is weighed into a 2 ml HPLC vial and 0.5 ml of acetonitrile or acetonitrile/DMSO (9:1) is added. The substance is dissolved by putting the sample vessel in an ultrasonic bath for about 10 seconds. Then 0.5 ml of the respective (buffer) solution is added, and the sample is again treated in the ultrasonic bath.
(Buffer) solutions employed:
pH 4: 1 liter of Millipore water is adjusted to pH 4.0 with 1 N hydrochloric acid;
pH 7.4: 90.0 g of sodium chloride, 13.61 g of potassium dihydrogen phosphate and 83.35 g of 1 N sodium hydroxide solution are made up to 1 liter with water; this solution is then further diluted 1:10 with Millipore water.
5 μl portions of the test solution are analyzed by HPLC for their content of unchanged test substance, and of active substance (A) produced, every hour over a period of 24 hours at 37° C. The percentage areas of the appropriate peaks are used for quantification.
HPLC method for Examples 41 and 44:
Agilent 1100 with DAD (G1315B), binary pump (G1312A), autosampler (G1329A), column oven (G1316A), thermostat (G1330B); column: Kromasil 100 C18, 250 mm×4 mm, 5 μm; column temperature: 30° C.; mobile phase A: water+5 ml of perchloric acid/liter, eluent B: acetonitrile; gradient: 0 min 90% A→5.0 min 40% A→18.0 min 10% A→19.0 min 10% A→21.0 min 90% A→23.0 min 90% A; flow rate: 2.0 ml/min; UV detection: 288 nm.
HPLC Method for Examples 50 and 59:
Agilent 1100 with DAD (G1315B), binary pump (G1312A), autosampler (G1329A), column oven (G1316A), thermostat (G1330B); column: Kromasil 100 C18, 125 mm×4 mm, 5 μm; column temperature: 30° C.; mobile phase A: water+5 ml of perchloric acid/liter, eluent B: acetonitrile; gradient: 0 min 90% A→5.0 min 60% A→7.0 min 60% A→10.0 min 10% A→12.0 min 10% A→14.0 min 90% A→16.0 min 90% A; flow rate: 2.0 ml/min; UV detection: 294 nm.
HPLC Method for Example 54:
Agilent 1100 with DAD (G1314A), binary pump (G1312A), autosampler (G1329A), column oven (G1316A), thermostat (G1330A); column: Kromasil 100 C18, 250 mm×4 mm, 5 μm; column temperature: 30° C.; mobile phase A: water+5 ml of perchloric acid/liter, eluent B: acetonitrile; gradient: 0 min 90% A→5.0 min 40% A→18.0 min 10% A→19.0 min 10% A→21.0 min 90% A→23.0 min 90% A; flow rate: 2.0 ml/min; UV detection: 288 nm.
The ratios of the peak areas (F) at the respective time points in relation to the peak areas at the starting time are shown in Table 2 for representative exemplary embodiments: […]

The nature of series [4]: i.v. pharmacokinetics in Wistar rats. It counts as in vivo. The note with it: after i.v. administration. The protocol:
e) i.v. Pharmacokinetics in Wistar Rats:
(§1) On the day before administration of the substance, a catheter for obtaining blood is implanted in the jugular vein of the experimental animals (male Wistar rats, body weight 200-250 g) under Isofluran® anesthesia.
(§2) On the day of the experiment, a defined dose of the test substance is administered as solution into the tail vein using a Hamilton® glass syringe (bolus administration, duration of administration<10 s). Blood samples (8-12 time points) are taken through the catheter sequentially over the course of 24 h after administration of the substance. Plasma is obtained by centrifuging the samples in heparinized tubes. Acetonitrile is added to a defined plasma volume per time point to precipitate proteins. After centrifugation, test substance and, where appropriate, known cleavage products of the test substance in the supernatant are determined quantitatively using a suitable LC/MS-MS method.
The measured plasma concentrations are used to calculate pharmacokinetic parameters of the test substance and of the active ingredient compound (A) liberated therefrom, such as AUC, Cmax, T1/2 (half-life) and CL (clearance).

Series [5] is described as follows: Oral pharmacokinetics in Wistar rats. It counts as in vivo. The following applies: after oral administration. Here is the method: f) Oral Pharmacokinetics in Wistar Rats:
as §1
as §2, with “stomach by gavage.” for “tail vein using a Hamilton® glass syringe (bolus administration, duration of administration<10 s).”
The measured plasma concentrations are used to calculate pharmacokinetic parameters of the test substance and of the active ingredient compound (A) liberated therefrom, such as AUC, Cmax and T1/2 (half-life).

Series [6] is described as follows: Stability in suspension (isopropanol, 7 days). It counts as physicochemical. The following applies: room temperature, LC/MS. The protocol:
c) Stability in Suspension and as Solid:
4.7-4.8 g of the test substance are suspended in 200 ml of isopropanol and stirred at room temperature for 7 days. The solid is filtered off and air-dried at room temperature for 3 days. LC/MS (Method 2) is then used to measure whether there has been a degradation of the test substance.

A short description of series [7]: Stability as solid (90° C., 7 days). The note with it: sealed vial, HPLC. It counts as physicochemical. The protocol: To assess the stability of the solids, 20 mg of the solids obtained in this manner are stored in a sealed Head-Space vial at 90° C. in a drying cabinet without vacuum for 7 days. HPLC is then used to measure whether there has been a degradation of the test substance.
HPLC Method for Measuring the Stability of the Solid of Example 63:
HPLC Method for Measuring the Stability of the Solid of Example 44: […]

The values that follow come from US8772498B2, “Alkylamine-substituted dicyanopyridine and amino acid ester prodrugs thereof” (Bayer Intellectual Property GmbH, priority 2009, dated 2014).

Structures can show the parent of a compound that is named as a salt.

As to `C[C@H](NC(=O)[C@@H](N)CCCCN)C(=O)OCCOc1ccc(-c2c(C#N)c(SCc3csc(-c4ccc(Cl)cc4)n3)nc(N3CCCC3)c2C#N)cc1` [Example 41, 2-{4-(2-({(2-(4-Chlorophenyl)-1,3-thiazol-4-ylmethyl}sulfanyl)-3,5-dicyano-6-(pyrrolidin-1-yl)pyridin-4-yl)phenoxy}ethyl L-lysyl-L-alaninatedihydrochloride], the Heart rate reduction in series [1] is on record as −5%. Further, the solubility (in general, how much of the substance goes into solution per volume) at 24 h in series [2] amounted to 650 µg/mL. Besides, the “% test substance after 4 h (F(t = 4 h) × 100/F(t = 0 h))” value (“% test substance after 4 h” below) in series [3] (pH 4, 37° C.) came to 97%; in series [3] (pH 7.4, 37° C.) it was 37%. In addition, the “% test substance after 24 h (F(t = 24 h) × 100/F(t = 0 h))” value (from here on “% test substance after 24 h”) is given as 99% in series [3] (pH 4, 37° C.) and 0% in series [3] (pH 7.4, 37° C.). The “Detectability of the administered substance in plasma” value (from here on “Detectability”) in series [4] and in series [5] was “no longer detectable in plasma even at the first measurement point” each time.

Consider `CC[C@H](C)[C@H](N)C(=O)N[C@@H](C)C(=O)OCCOc1ccc(-c2c(C#N)c(SCc3csc(-c4ccc(Cl)cc4)n3)nc(N3CCCC3)c2C#N)cc1` [Example 63, 2-{4-(2-({(2-(4-Chlorophenyl)-1,3-thiazol-4-yl)methyl}sulfanyl)-3,5-dicyano-6-(pyrrolidin-1-yl)pyridin-4-yl)phenoxy}ethyl L-isoleucyl-L-alaninate hydrochloride], for which, in series [1], the Heart rate reduction was −20%. Also, the “% test substance after 4 h” value in series [3] (pH 4, 37° C.) came out at 98%; in series [3] (pH 7.4, 37° C.), 93%. Also, the “% test substance after 24 h” value in series [3] (pH 4, 37° C.) worked out at 98%; in series [3] (pH 7.4, 37° C.) it was 67%. The “Degradation of the test substance in suspension” value in series [6] is recorded as “no degradation”. Also, in series [7], the “Degradation of the solid” value is on record as “no degradation”. The “Detectability” value in series [4] and in series [5] was “no longer detectable in plasma even at the first measurement point” in each case.

With `C[C@H](N)C(=O)N[C@@H](C)C(=O)OCCOc1ccc(-c2c(C#N)c(SCc3csc(-c4ccc(Cl)cc4)n3)nc(N3CCCC3)c2C#N)cc1` [Example 44, 2-{4-(2-({(2-(4-Chlorophenyl)-1,3-thiazol-4-yl)methyl}sulfanyl)-3,5-dicyano-6-(pyrrolidin-1-yl)pyridin-4-yl)phenoxy}ethyl L-alanyl-L-alaninate hydrochloride], in series [1], the Heart rate reduction is given as −20%. Also, in series [2], the solubility at 24 h came to 410 µg/mL. Besides, the “% test substance after 4 h” value in series [3] (pH 4, 37° C.) worked out at 99%; in series [3] (pH 7.4, 37° C.), 78%. Besides, the “% test substance after 24 h” value turned out to be 99% in series [3] (pH 4, 37° C.) and 26% in series [3] (pH 7.4, 37° C.). For the same compound, in series [6], the “Degradation of the test substance in suspension” value is “no degradation”. Also, the “Degradation of the solid” value in series [7] is given as “no degradation”. In addition, the “Detectability” value in series [4] and in series [5] was “no longer detectable in plasma even at the first measurement point” each time.
